From patent US20240262842A1, “SMALL MOLECULE INHIBITORS OF KRAS G12C MUTANT” (Merck Sharp & Dohme LLC, priority 2021, published 2024) come the findings set out here.

Molecules are shown by their SMILES. Where two headings read alike, the source gives them in different places.

For orientation: IC50 means the concentration that inhibits the measured activity by half.

In one assay the test system is MIA PaCa-2 cells. Briefly: Growth inhibition activity on KRAS-G12C mutant cell line (CellTiter-Glo 3D). Type of assay: cell-based, human. The settings on record: MIA PaCa-2, 3-day culture with compound. The gist of the method: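 IC50 (nM) derived from inhibition of luminescence (CellTiter-Glo 3D) relative to compound-free wells. Cells were seeded in U-bottom plates, grown 1 day, then exposed to compound for 3 days at 37 °C with 0.2% final DMSO.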
On the technique in general: ATP-based viability assays read luminescence as a measure of living cells.

For assay [1], the target named is T1, interaction between GMPPNP-bound recombinant K-Ras4B G12C mutant protein and cRAF RAS-binding domain (cRAF-RBD) (Homo sapiens, UniProt P01116, G12C).
T1 construct: His-tag (N)
T1 sequence (P01116 with tags, fused parts or gaps isoform P01116-2 G12C): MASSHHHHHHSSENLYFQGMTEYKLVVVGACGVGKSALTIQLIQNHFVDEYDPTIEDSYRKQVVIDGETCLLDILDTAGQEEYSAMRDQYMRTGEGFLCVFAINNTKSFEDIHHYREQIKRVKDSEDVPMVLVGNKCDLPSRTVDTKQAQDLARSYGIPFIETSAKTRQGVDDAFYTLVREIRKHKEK
Nature of the assay: Inhibitory activity on interaction between KRAS G12C and cRAF (Alpha technology). The method, boiled down: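 Alpha signal measured 1.5 h after adding cRAF-RBD (aa 50-132) and detection reagents to GMPPNP-bound KRAS G12C (aa 1-169) pretreated 1 h at 25° C with compound (pH 7.5 buffer). 0% inhibition = DMSO, 100% = GDP-loaded KRAS; IC50 by curve fit.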

Setting [2] is: Homo sapiens, MIA PaCa-2, 72 h, Table 3-1.
[3] abbreviates: IC50, GMPPNP-bound KRAS G12C incubated with compound 25° C. 1 hour, Table 2-1.
The mark [4] stands for this setting: GMPPNP-bound KRAS G12C incubated with compound 25° C. 1 hour, Table 2-1, read-out: IC50.
Setting [5] is: IC50, GMPPNP-bound KRAS G12C incubated with compound 25° C. 1 hour, Table 2.
Where [6] appears, read: Homo sapiens, MIA PaCa-2, 72 h, Table 3.
Setting [7] is: GMPPNP-bound KRAS G12C incubated with compound 25° C. 1 hour, Table 2, read-out: IC50.

Consider `CO[C@H]1CC[C@H](NC/C=C/C(=O)Nc2c(F)cc(C(=O)c3cn4c5c(cccc35)-c3c(C)cc5c(nc(C)n5C)c3N(C(C)=O)CC4)cc2F)CC1` [Example 72, (E)-N-(4-(11-acetyl-6,8,9-trimethyl-8,11,12,13-tetra-hydroimidazo[4″,5″: 5′,6′]benzo[1′,2′:2,3][1,4]-diazocino[7,8,1-hi]indole-2-carbonyl)-2,6-difluoro-phenyl)-4-(((1r,4r)-4-methoxycyclohexyl)-amino)but-2-enamide], for which the values for the IC50 (in the assay with MIA PaCa-2 cells (setting [2]); in assay [1] (setting [3])) were 1170 nM and 97.8 nM, respectively.

As to `CO[C@H]1CC[C@H](NC/C=C/C(=O)Nc2c(F)cc(C(=O)c3cc4c5c(cccn35)-c3c(Cl)cc5c(nc(C)n5C)c3OCC4)cc2F)CC1` [Example 53], the IC50 is 31.9 nM in the assay on MIA PaCa-2 cells (setting [2]) and 22.2 nM in assay [1] (setting [4]).

Take `COc1cc2c(nc(C)n2C)c2c1-c1cccn3c(C(=O)c4cc(F)c(NC(=O)/C=C/CNC5(C)CCCC5)c(F)c4)cc(c13)CCN2C` [Example 245, (E)-N-(2,6-difluoro-4-(7-methoxy-9,10,12-trimeth-yl-9,12,13,14-tetrahydro-imidazo[4″,5″:5′,6′]benzo-[1′,2′:2,3]azocino[4,5,6-hi]indolizine-2-carbonyl)-phenyl)-4-((1-methyl-cyclopentyl)amino)but-2-enamide]: the values for the IC50 (with MIA PaCa-2 cells (setting [2]); in assay [1] (setting [4])) were 25.4 nM and 33.1 nM, respectively.

With `CC(=O)NC[C@@H]1CCN1C/C=C/C(=O)Nc1c(F)cc(C(=O)c2cc3c4c(cccn24)-c2c(C(F)(F)F)cc4c(ncn4C)c2OCC3)cc1F` [Example 192, (S,E)-4-(2-(acetamido-methyl)azetidin-1-yl)-N-(2,6-difluoro-4-(9-meth-yl-7-(trifluoromethyl)-13,14-dihydro-9H-imidazo[4″,5″:5′,6′]benzo-[1′,2′:2,3]oxocino[4,5,6-hi]indolizine-2-carbonyl)-phenyl)but-2-enamide], the figures for the IC50 (with MIA PaCa-2 cells (setting [2]); in assay [1] (setting [4])) were 24.3 nM and 91.5 nM, respectively.

Take `COCCn1c(C)nc2c3c(c(OC)cc21)-c1cccn2c(C(=O)c4cc(F)c(NC(=O)/C=C/CNC5(C)CC5)c(F)c4)cc(c12)CC[S+]3[O-]` (centres unmarked) [Example 241]: the IC50 in the assay on MIA PaCa-2 cells (setting [2]) stood at 877 nM; in assay [1] (setting [4]), 31 nM.

As for `CN1CCc2cc(C(=O)c3cc(F)c(NC(=O)/C=C/CNC4(CO)CCCC4)c(F)c3)n3cccc(c23)-c2c(C(F)(F)F)cc3c(ncn3C)c21` [Example 109, (E)-N-(4-(9,12-dimethyl-7-(trifluoromethyl)-9,12,13,14-tetrahydro-imidazo[4″,5″:5′,6′]benzo-[1′,2′:2,3]azocino[4,5,6-hi]indolizine-2-carbonyl)-2,6-difluorophenyl)-4-((1-(hydroxymethyl)cyclo-pentyl)amino)but-2-enamide], the IC50 in the assay with MIA PaCa-2 cells (setting [2]) was 19.5 nM; in assay [1] (setting [4]), 24.8 nM.

Consider `CO[C@H]1CC[C@H](NC/C=C/C(=O)Nc2c(F)cc(C(=O)c3cn4c5c(cccc35)-c3c(cc(N5CCCC5=O)cc3C(F)(F)F)OCC4)cc2F)CC1` (single isomer, unassigned) [Example 5-2, (E)-N-(2,6-difluoro-4-(8-(2-oxopyrrolidin-1-yl)-10-(trifluoromethyl)-4,5-dihydrobenzo[7,8][1.4]oxazocino[6,5,4-hi]indole-1-carbonyl)phenyl)-4-(((1r,4t)-4-methoxycyclohexyl)amino)but-2-enamide], for which the values for the IC50 (in the assay on MIA PaCa-2 cells (Table 3); in assay [1] (setting [5])) were 1800 nM and over 6700 nM, respectively.

Regarding `Cc1cc2c(nc(C)n2C)c2c1-c1cccc3c(C(=O)c4cc(F)c(NC(=O)/C=C/CNC56CCC(CC5)OC6)c(F)c4)cn(c13)CCN2C` [Example 73, (E)-4-((2-oxabicyclo-[2.2.2]octan-4-yl)amino)-N-(2,6-difluoro-4-(6,8,9,11-tetramethyl-8,11,12,13-tetrahydro-imidazo[4″,5″:5′,6′]-benzo[1′,2′:5,6][1,4]-diazocino[7,8,1-hi]indole-2-carbonyl)phenyl)but-2-enamide], the figures for the IC50 (with MIA PaCa-2 cells (Table 3-1); in assay [1] (setting [3])) were 21.6 nM and 46.9 nM, respectively.

In the case of `Cc1nc2c3c(c(C(F)(F)F)cc2n1C)-c1cccn2c(C(=O)c4cc(F)c(NC(=O)/C=C/CNC5CCP(C)(=O)CC5)c(F)c4)cc(c12)CCO3` (centres unmarked) [Example 36], the results for the IC50 (with MIA PaCa-2 cells (setting [6]); in assay [1] (setting [7])) were 150 nM and 13 nM, respectively.

On to `Cc1nc2c3c(c(C(F)(F)F)cc2n1C)-c1cccn2c(C(=O)c4cc(F)c(NC(=O)/C=C/CN(C)C)c(F)c4)cc(c12)CCO3` (single isomer, unassigned) [Example 38-2], for which the IC50 with MIA PaCa-2 cells (Table 3) came to 19 nM; in assay [1] (setting [7]), 27 nM.

As to `COCc1nc2c3c(c(OC)cc2n1C)-c1cccn2c(C(=O)c4cc(F)c(NC(=O)/C=C/CN[C@H]5CCOC5)c(F)c4)nc(c12)CCN3C` (single isomer, unassigned) [Example 177], the IC50 in the assay with MIA PaCa-2 cells (setting [2]) was 38.5 nM; in assay [1] (setting [4]) it was 39.5 nM.

Regarding `CC(=O)N1CCC(C)(NC/C=C/C(=O)Nc2c(F)cc(C(=O)c3cc4c5c(cccn35)-c3c(C(F)(F)F)cc5c(ncn5C)c3N(C)CC4)cc2F)CC1` [Example 86, (E)-4-((1-acetyl-4-methyl-piperidin-4-yl)amino)-N-(4-(9,12-dimethyl-7-(trifluoromethyl)-9,12,13,14-tetrahydro-imidazo[4″,5″:5′,6′]benzo-[1′,2′:2,3]azocino[4,5,6-hi]indolizine-2-carbonyl)-2,6-difluorophenyl)but-2-enamide], the IC50 was 6.11 nM in the assay with MIA PaCa-2 cells (setting [2]) and 22.3 nM in assay [1] (setting [4]).

In the case of `CO[C@H]1CC[C@H](NC/C=C/C(=O)Nc2c(F)cc(C(=O)c3cn4c5c(cccc35)-c3c(C)cc5c(nc(C)n5C)c3OC[C@H](C)C4)cc2F)CC1` (single isomer, unassigned) [Example 24], the IC50 in the assay on MIA PaCa-2 cells (Table 3) was 1100 nM; in assay [1] (setting [5]), 1800 nM.

`CO[C@H]1CC[C@H](NC/C=C/C(=O)Nc2c(F)cc(C(=O)c3cn4c5c(cccc35)-c3c(Cl)cc(N5CCCC5=O)cc3OCC4)cc2F)CC1` [Example 8, (E)-N-(4-(10-chloro-8-(2-oxopyrrolidin-1-yl)-4,5-dihydrobenzo[7,8][1,4]oxazocino[6,5,4-hi]indole-1-carbonyl)-2,6-difluorophenyl)-4-(((1r,4t)-4-methoxycyclohexyl)amino)but-2-enamide]: the results for the IC50 (in the assay on MIA PaCa-2 cells (setting [6]); in assay [1] (setting [5])) were 160 nM and 150 nM, respectively.

Take `CCN1CCn2cc(C(=O)c3cc(F)c(NC(=O)/C=C/CN[C@H]4CC[C@H](OC)CC4)c(F)c3)c3cccc(c32)-c2c(C)cc3c(nc(C)n3C)c21` [Example 66, (E)-N-(4-(11-ethyl-6,8,9-trimethyl-8,11,12,13-tetra-hydroimidazo[4″,5″:5′,6′]-benzo[1′,2′:5,6][1,4]diazo-cino[7,8,1-hi]indole-2-carbonyl)-2,6-difluoro-phenyl)-4-(((1r,4r)-4-meth-oxycyclohexyl)amino)but-2-enamide]: the figures for the IC50 (with MIA PaCa-2 cells (setting [2]); in assay [1] (setting [3])) were 30.1 nM and 53.4 nM, respectively.

As for `CN1CCc2cc(C(=O)c3cc(F)c(NC(=O)/C=C/CN4C[C@@H]5C[C@H]4CO5)c(F)c3)n3cccc(c23)-c2c(C(F)(F)F)cc3c(ncn3C)c21` [Example 208, (E)-4-((1S,4S)-2-oxa-5-azabicyclo[2.2.1]heptan-5-yl)-N-(4-(9,12-dimeth-yl-7-(trifluoromethyl)-9,12,13,14-tetrahydro-imidazo[4″,5″:5′,6′]benzo-[1′,2′:2,3]azocino[4,5,6-hi]indolizine-2-carbonyl)-2,6-difluorophenyl)but-2-enamide], the IC50 is 11.4 nM in the assay on MIA PaCa-2 cells (setting [2]) and 35.4 nM in assay [1] (setting [4]).
